In ChEMBL document CHEMBL1127817, “Antitumor agents. 150. 2',3',4',5',5,6,7-substituted 2-phenyl-4-quinolones and related compounds: their synthesis, cytotoxicity, and inhibition of tubulin polymerization” (J Med Chem, 1994):

Assays:
NCI-H226 = assay: In vitro inhibition of tumor cell growth of NCI-H226, a non small-cell lung cancer cell line; type: functional; conditions: Homo sapiens
RXF 393 = assay: In vitro inhibition of tumor cell growth of RXF-393, renal cancer cell line; type: functional; conditions: Homo sapiens
KM-20L2 = assay: In vitro inhibition of tumor cell growth of KM20L2, colon cancer cell line; type: functional; conditions: Homo sapiens
SF-295 = assay: In vitro inhibition of tumor cell growth of SF-295, CNS tumor cell line; type: functional; conditions: Homo sapiens
DMS-114 = assay: In vitro inhibition of tumor cell growth of DMS114, a small-cell lung cancer cell line; conditions: Homo sapiens
Tubulin beta chain = Tubulin beta chain (Bos taurus, UniProt Q6B856); assay: Inhibition of tubulin polymerization; type: functional
SF-268 = assay: In vitro inhibition of tumor cell growth of SF-268, CNS tumor cell line; type: functional; conditions: Homo sapiens
SK-MEL-5 = assay: In vitro inhibition of tumor cell growth of SK-Mel-5, melanoma cell line; type: functional; conditions: Homo sapiens
OVCAR-3 = assay: In vitro inhibition of tumor cell growth of OVCAR-3, ovarian cancer cell line; type: functional; conditions: Homo sapiens
HCT-116 = assay: In vitro inhibition of tumor cell growth of HCT116, colon cancer cell line; type: functional; conditions: Homo sapiens

Sequence of Tubulin beta chain (Q6B856 whole entry): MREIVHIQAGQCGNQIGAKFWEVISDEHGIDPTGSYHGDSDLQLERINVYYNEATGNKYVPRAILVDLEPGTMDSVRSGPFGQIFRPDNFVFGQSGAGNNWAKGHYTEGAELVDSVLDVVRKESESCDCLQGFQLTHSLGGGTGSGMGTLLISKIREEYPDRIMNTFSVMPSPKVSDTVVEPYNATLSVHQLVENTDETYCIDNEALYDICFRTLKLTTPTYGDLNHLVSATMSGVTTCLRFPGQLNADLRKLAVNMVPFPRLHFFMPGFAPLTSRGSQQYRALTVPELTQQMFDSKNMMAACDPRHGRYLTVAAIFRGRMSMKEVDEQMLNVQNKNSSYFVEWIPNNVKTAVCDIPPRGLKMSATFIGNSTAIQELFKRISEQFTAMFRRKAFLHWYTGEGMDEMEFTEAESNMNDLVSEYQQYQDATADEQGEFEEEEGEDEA

| Compound | GI50 (NCI-H226) [µM] | GI50 (RXF 393) [µM] | GI50 (KM-20L2) [µM] | GI50 (SF-295) [µM] | GI50 (DMS-114) [µM] | IC50 (Tubulin beta chain) [µM] | GI50 (SF-268) [µM] | GI50 (SK-MEL-5) [µM] | GI50 (OVCAR-3) [µM] | GI50 (HCT-116) [µM] |
| --- | --- | --- | --- | --- | --- | --- | --- | --- | --- | --- |
| Oc1cc(-c2cccs2)nc2cc3c(cc12)OCO3 | 6.31 | 2.04 | 14.5 | 3.24 | 6.76 | 2.2 | 11.2 | 1.35 | 7.94 | 4.79 |
| COc1ccc2nc(-c3ccc(O)cc3)cc(O)c2c1 | 0.209 | 0.17 | 0.407 | 0.245 | 0.178 | 5.6 | 0.417 | 0.288 | 0.302 | 0.209 |
| Oc1cc(-c2ccc(Oc3ccccc3)cc2)nc2cc3c(cc12)OCO3 | – | > 100 | > 100 | > 100 | > 100 | > 40 | > 100 | > 100 | > 100 | > 100 |
| Oc1cc(/C=C/c2ccccc2)nc2cc3c(cc12)OCO3 | 2.88 | 4.27 | – | 3.02 | – | 2.3 | 7.08 | 2.19 | 2.24 | 2.82 |
| Oc1cc(-c2ccccn2)nc2cccc(F)c12 | > 100 | > 100 | > 100 | > 100 | > 100 | > 40 | – | 61.7 | > 100 | – |
| CN(C)c1ccc(-c2cc(O)c3cc4c(cc3n2)OCO4)cc1 | > 100 | > 100 | > 100 | > 100 | > 100 | > 40 | > 100 | > 100 | > 100 | > 100 |
| COc1cc2nc(-c3ccccc3)cc(O)c2cc1OC | – | – | – | – | – | 18 | – | – | – | – |
| COc1ccc(-c2cc(O)c3cc4c(cc3n2)OCO4)cc1OC | > 100 | > 100 | > 100 | > 100 | > 100 | > 40 | > 100 | > 100 | > 100 | > 100 |
| COc1ccc(-c2cc(O)c3ccc(F)cc3n2)cc1 | > 100 | > 100 | > 100 | > 100 | > 100 | > 40 | > 100 | > 100 | > 100 | > 100 |
| Oc1cc(-c2ccccc2)nc2cc3c(cc12)OCO3 | 0.316 | 0.112 | 0.182 | 0.191 | – | 0.63 | 0.0302 | 0.0355 | 0.162 | 0.0708 |
| COc1ccc(-c2cc(O)c3cc(OC)ccc3n2)cc1 | > 100 | > 100 | > 100 | – | > 100 | > 40 | 36.3 | > 100 | > 100 | > 100 |
| Oc1cc(-c2ccccn2)nc2cc(F)ccc12 | > 100 | – | > 100 | > 100 | 52.5 | > 40 | 29.5 | 44.7 | – | 43.7 |
| COc1cccc(-c2cc(O)c3cc(OC)c(OC)cc3n2)c1 | 21.4 | 33.1 | 24 | 40.7 | 55 | 4.3 | 50.1 | – | 33.9 | 58.9 |
| COc1ccc(-c2cc(O)c3cc4c(cc3n2)OCO4)cc1 | 28.8 | 38 | > 100 | > 100 | > 100 | > 40 | > 100 | > 100 | > 100 | > 100 |
| Oc1cc(-c2ccc3c(c2)OCO3)nc2cc3c(cc12)OCO3 | 39.8 | 20.9 | 26.3 | 29.5 | 24 | 1.1 | 46.8 | 25.1 | 19.5 | 38 |
| CN(C)c1ccc(-c2cc(O)c3ccccc3n2)cc1 | > 100 | > 100 | > 100 | > 100 | > 100 | > 40 | > 100 | – | > 100 | > 100 |
| COc1ccc2c(c1)CCc1c-2nc2cc3c(cc2c1O)OCO3 | > 100 | > 100 | > 100 | > 100 | – | – | > 100 | > 100 | > 100 | > 100 |
| COc1cc2nc(-c3cccc(N(C)C)c3)cc(O)c2cc1OC | 1.86 | 2.24 | 2 | 1.95 | 4.79 | 15 | 5.25 | – | < 1 | 5.01 |

| Compound | GI50 (NCI-H226) [µM] | GI50 (RXF 393) [µM] | GI50 (KM-20L2) [µM] | GI50 (SF-295) [µM] | GI50 (DMS-114) [µM] | IC50 (Tubulin beta chain) [µM] | GI50 (SF-268) [µM] | GI50 (SK-MEL-5) [µM] | GI50 (OVCAR-3) [µM] | GI50 (HCT-116) [µM] |
| --- | --- | --- | --- | --- | --- | --- | --- | --- | --- | --- |
| CN(C)c1cccc(-c2cc(O)c3ccccc3n2)c1 | 29.5 | 35.5 | 34.7 | 28.2 | 45.7 | 1.5 | 75.9 | – | 41.7 | 58.9 |
| COc1ccc(OC)c(-c2cc(O)c3cc4c(cc3n2)OCO4)c1 | 6.31 | 3.02 | 6.92 | 6.61 | 5.01 | 5.5 | 8.32 | 4.07 | 4.9 | 3.24 |
| Oc1cc(-c2ccc[nH]2)nc2cc3c(cc12)OCO3 | 35.5 | 15.8 | 20 | 33.9 | 32.4 | 18 | > 100 | 7.76 | 30.9 | 29.5 |
| COc1ccc2nc(-c3ccccn3)cc(O)c2c1 | 36.3 | 2.51 | 35.5 | 51.3 | 22.4 | > 40 | 24 | 28.2 | > 100 | 33.9 |
| COc1cc(-c2cc(O)c3ccccc3n2)cc(OC)c1OC | > 100 | > 100 | > 100 | > 100 | > 100 | > 40 | > 100 | – | > 100 | > 100 |
| COc1ccc(-c2cc(O)c3cc4c(cc3n2)OCO4)c(OC)c1 | 93.3 | 45.7 | 42.7 | 45.7 | 26.3 | > 40 | 63.1 | 42.7 | > 100 | 40.7 |
| COc1ccc(-c2cc(O)c3cc(OC)c(OC)cc3n2)cc1OC | > 100 | 67.6 | – | > 100 | – | > 40 | > 100 | > 100 | > 100 | > 100 |
| Oc1cc(-c2ccco2)nc2cc3c(cc12)OCO3 | 24.5 | 25.1 | 21.4 | 28.2 | 37.2 | 23 | 41.7 | 13.5 | 42.7 | 39.8 |
| COc1ccc(-c2cc(O)c3cc(Cl)ccc3n2)cc1 | > 100 | > 100 | > 100 | > 100 | > 100 | > 40 | > 100 | > 100 | > 100 | > 100 |
| Oc1c2c(nc3cc4c(cc13)OCO4)-c1ccccc1CCC2 | > 100 | > 100 | – | 19.5 | – | > 40 | > 100 | > 100 | > 100 | 28.2 |
| Oc1c2c(nc3cc4c(cc13)OCO4)-c1ccccc1CC2 | > 100 | > 100 | > 100 | > 100 | > 100 | > 40 | > 100 | > 100 | > 100 | > 100 |
| Oc1cc(-c2ccccn2)nc2ccc(Cl)cc12 | 46.8 | 33.9 | 39.8 | 51.3 | 13.8 | > 40 | 23.4 | 26.3 | 63.1 | 26.3 |
| COc1ccc(CCc2cc(OC)c(OC)c(OC)c2)cc1O | – | – | – | – | – | 0.63 | – | – | – | – |
| Oc1cc(-c2c[nH]c3ccccc23)nc2cc3c(cc12)OCO3 | > 100 | > 100 | > 100 | 91.2 | > 100 | 1.3 | > 100 | > 100 | > 100 | > 100 |
| COc1cc(-c2cc(O)c3cc4c(cc3n2)OCO4)cc(OC)c1OC | > 100 | 21.9 | > 100 | 32.4 | 83.2 | > 40 | 32.4 | 93.3 | > 100 | 74.1 |
| CN(C)c1cccc(-c2cc(O)c3cc4c(cc3n2)OCO4)c1 | 0.316 | 0.24 | 0.229 | 0.24 | 0.407 | 0.7 | 0.741 | 0.195 | 0.245 | 0.372 |
| COc1cccc(-c2cc(O)c3ccccc3n2)c1 | 2.82 | 6.61 | 8.51 | 2.29 | 5.62 | 1.4 | 6.76 | – | 5.5 | 5.75 |
